Measurements taken from ChEMBL document CHEMBL5143510, “Structure modification and biological evaluation of indole-chalcone derivatives as anti-tumor agents through dual targeting tubulin and TrxR” (Eur J Med Chem, 2022).
Calls of active or inactive are those of the source. The calls are words filed in the database; no cut-off is given here.

Columns and labels:
MCF7 = assay: Antiproliferative activity against human MCF7 cells assessed as reduction in cell viability incubated for 48 hrs by MTT assay; assay type: functional, cell-based; settings: MCF7, 48 h
MHCC97H [1] = assay: Induction of morphological changes in human MHCC97H cells assessed as cell rounding at 5 to 50 nM incubated for 48 hrs by phase contrast microscopic analysis; assay type: functional, cell-based; settings: dose 5-50 nM
HeLa = assay: Antiproliferative activity against human HeLa cells assessed as reduction in cell viability incubated for 48 hrs by MTT assay; assay type: functional, cell-based
HCT-8 = assay: Antiproliferative activity against human HCT-8 cells assessed as reduction in cell viability incubated for 48 hrs by MTT assay; assay type: functional, cell-based; settings: HCT-8, 48 h
Tubulin (Homo sapiens) [2] = target: T1, Tubulin (Homo sapiens) (UniProt P68371+Q9H4B7+P0DPH7+P68366+Q13509+Q71U36+P04350+Q3ZCM7+P07437+P68363+Q9BQE3+Q6PEY2+Q13885+Q9BVA1+Q9BUF5); assay: Disruption of microtubule network in human MHCC97H cells assessed as dotted morphology at 5 to 50 nM incubated for 24 hrs by Hoechst 33342 staining based confocal microscopy; assay type: cell-based; settings: dose 5-50 nM
[3] = Cytotoxicity against human L02 cells assessed as reduction in cell viability incubated for 48 hrs by MTT assay; assay type: toxicity, cell-based
[4] = Cytotoxicity against human HLF cells assessed as reduction in cell viability incubated for 48 hrs by MTT assay; assay type: toxicity, cell-based
[5] = Cytotoxicity against human MCF-10A cells assessed as reduction in cell viability incubated for 48 hrs by MTT assay; assay type: toxicity, cell-based
[6] = Selectivity ratio, ratio of IC50 for cytotoxicity against human L02 cells to IC50 for antiproliferative activity against human MHCC97H cells; assay type: toxicity, cell-based; settings: L02 cells versus MHCC97H cells, read-out: Ratio IC50
[7] = Selectivity ratio, ratio of IC50 for cytotoxicity against human MCF-10A cells to IC50 for antiproliferative activity against human MHCC97H cells; assay type: toxicity, cell-based; settings: MCF-10A cells versus MHCC97H cells, read-out: Ratio IC50
[8] = Antiproliferative activity against paclitaxel resistant human A2780/PTX cells assessed as reduction in cell viability incubated for 48 hrs by MTT assay; assay type: functional, cell-based
[9] = Resistance index, ratio of IC50 for antiproliferative activity against adriamycin resistant human MCF7/ADR cells to IC50 for antiproliferative activity against human MCF7 cells; assay type: functional
[10] = Resistance index, ratio of IC50 for antiproliferative activity against vincristine resistant human HCT-8/VCR cells to IC50 for antiproliferative activity against human HCT-8 cells; assay type: functional
[11] = Resistance index, ratio of IC50 for antiproliferative activity against paclitaxel resistant human A2780/PTX cells to IC50 for antiproliferative activity against human A2780 cells; assay type: functional
MHCC97H [12] = assay: Induction of morphological changes in human MHCC97H cells assessed as membrane blebbing at 5 to 50 nM incubated for 48 hrs by phase contrast microscopic analysis; assay type: functional, cell-based; settings: dose 5-50 nM
MHCC97H [13] = assay: Induction of morphological changes in human MHCC97H cells assessed as loss of adherent property at 5 to 50 nM incubated for 48 hrs by phase contrast microscopic analysis; assay type: functional, cell-based; settings: dose 5-50 nM
HUVEC = assay: Induction of morphological changes in human HUVEC cells assessed as cell shrinkage at 50 nM incubated for 48 hrs by phase contrast microscopic analysis; assay type: toxicity, cell-based; settings: 0.05 µM
Tubulin (Homo sapiens) [14] = target: T1, Tubulin (Homo sapiens); assay: Disruption of microtubule network in human MHCC97H cells assessed as shrunken morphology at 5 to 50 nM incubated for 24 hrs by Hoechst 33342 staining based confocal microscopy; assay type: cell-based; settings: dose 5-50 nM
Tubulin (Homo sapiens) [15] = target: T1, Tubulin (Homo sapiens); assay: Disruption of microtubule network in human MHCC97H cells assessed as punctate morphology at 5 to 50 nM incubated for 24 hrs by Hoechst 33342 staining based confocal microscopy; assay type: cell-based; settings: dose 5-50 nM
Tubulin (Homo sapiens) [16] = target: T1, Tubulin (Homo sapiens); assay: Inhibition of colchicine binding to tubulin (unknown origin) at 0.156 uM by competitive binding assay relative to control; assay type: protein-complex assay
Tubulin (Homo sapiens) [17] = target: T1, Tubulin (Homo sapiens); assay: Inhibition of colchicine binding to tubulin (unknown origin) at 1.25 uM by competitive binding assay relative to control; assay type: protein-complex assay
Tubulin (Homo sapiens) [18] = target: T1, Tubulin (Homo sapiens); assay: Inhibition of colchicine binding to tubulin (unknown origin) at 5.0 uM by competitive binding assay relative to control; assay type: protein-complex assay
Tubulin (Homo sapiens) [19] = target: T1, Tubulin (Homo sapiens); assay: Inhibition of colchicine binding to tubulin (unknown origin) at 10 uM by competitive binding assay relative to control; assay type: protein-complex assay
Tubulin = assay: Inhibition of colchicine binding to tubulin (unknown origin) by competitive binding assay; assay type: protein-complex assay, Homo sapiens
MHCC97H [20] = assay: Induction of cell cycle arrest in human MHCC97H cells assessed as decrease in accumulation of cells at G1 phase at 5 to 50 nM measured after 48 hrs by propidium iodide staining based flow cytometry; assay type: functional; settings: dose 5-50 nM
Homo sapiens = organism: Homo sapiens; assay: Irreversible inhibition of TrxR (unknown origin) using DTNB as substrate at 2.5 uM incubated for 2 hrs in presence of NADPH followed by substrate addition ultrafiltration based microplate reader analysis relative to control
A2780/PTX = assay: Downregulation of TrxR in paclitaxel resistant human A2780/PTX cells at 10 to 50 nM incubated for 48 hrs by Western blot analysis; assay type: functional, cell-based; settings: dose 10-50 nM
NCI/ADR-RES = assay: Downregulation of TrxR in adriamycin resistant human MCF7/ADR cells at 10 to 50 nM incubated for 48 hrs by Western blot analysis; assay type: functional, cell-based; settings: dose 10-50 nM
MHCC97H [21] = assay: Induction of oxidative stress in human MHCC97H cells assessed as increase in superoxide anion level at 5 to 50 nM incubated for 4 hrs by DHE based fluorescence microscopy; assay type: functional, cell-based; settings: dose 5-50 nM
MHCC97H [22] = assay: Induction of apoptosis in human MHCC97H cells assessed as decrease in MMP level incubated for 24 hrs by JC-1 staining based flow cytometry; assay type: functional, cell-based; settings: dose 5-50 nM, DDE = dose-dependent effect
MHCC97H [23] = assay: Induction of apoptosis in human MHCC97H cells assessed as nucleus shrinkage at 5 to 50 nM incubated for 24 hrs by Hoechst 33342 staining based fluorescence microscopy; assay type: functional, cell-based; settings: dose 5-50 nM
MHCC97H [24] = assay: Induction of apoptosis in human MHCC97H cells assessed as increase in total apoptotic cells at 5 to 50 nM by Annexin V-FITC/PI staining based flow cytometry method; assay type: functional, cell-based; settings: dose 5-50 nM, time 24-48 hrs, TDE = time-dependent effect
MHCC97H [25] = assay: Induction of apoptosis in human MHCC97H cells assessed as downregulation of Bcl-2 expression at 5 to 50 nM measured after 24 to 48 hrs by Western blot analysis; assay type: functional, cell-based; settings: dose 5-50 nM, time 24-48 hrs
MHCC97H [26] = assay: Antitumor activity against human MHCC97H cells xenografted in BALB/c mouse assessed as tumor growth inhibition at 30 mg/kg, ip administered every other day for 30 days; assay type: functional; settings: 720 h, time 30 day, read-out: TGI
MHCC97H [27] = assay: Antitumor activity against human MHCC97H cells xenografted in BALB/c mouse assessed as tumor weight at 30 mg/kg, ip administered every other day for 30 days; assay type: functional; settings: time 30 day
MHCC97H [28] = assay: Antitumor activity against human MHCC97H cells xenografted in BALB/c mouse assessed as tumor volume at 30 mg/kg, ip administered every other day for 30 days; assay type: functional; settings: time 30 day

IC50 (MCF7): 0.035 µM
IC50 (HeLa): 0.021 µM
IC50 (HCT-8): 0.029 µM
Activity (Tubulin (Homo sapiens) [2]): Active
Activity (Tubulin (Homo sapiens) [14]): Active
Activity (Tubulin (Homo sapiens) [15]): Active
inhibition (Tubulin (Homo sapiens) [16]): 24.9%
inhibition (Tubulin (Homo sapiens) [17]): 56.5%
inhibition (Tubulin (Homo sapiens) [18]): 86.8%
inhibition (Tubulin (Homo sapiens) [19]): 94.4%
IC50 (Tubulin): 1.3 µM
inhibition (Homo sapiens): 58.4%
Compound: COc1ccc2c(/C=C(\C)C(=O)c3cc(OC)c(OC)c([Se]C)c3)c[nH]c2c1
Activity (MHCC97H [1]): Active
IC50 at 48 h [3]: 0.398 µM
IC50 at 48 h [4]: 2.37 µM
IC50 at 48 h [5]: 0.723 µM
selectivity ratio [6]: 66.3
selectivity ratio [7]: 121
IC50 [8]: 0.02 µM
Ratio IC50 [9]: 0.51
Ratio IC50 [10]: 1.56
Ratio IC50 [11]: 1.11
Activity (MHCC97H [12]): Active
Activity (MHCC97H [13]): Active
Activity (HUVEC): Toxic
Activity (MHCC97H [20]): Active
Activity (A2780/PTX): Active
Activity (NCI/ADR-RES): Active
Activity (MHCC97H [21]): Active
Activity (MHCC97H [22]): Dde
Activity (MHCC97H [23]): Active
Activity (MHCC97H [24]): Tde
Activity (MHCC97H [25]): Active
inhibition in vivo at 30 mg/kg (MHCC97H [26]): 75.4%
Activity (MHCC97H [27]): 0.453 g
Activity (MHCC97H [28]): 419.7 mm3
